The record followed here is patent publication US11807648B2, “Process for preparing substituted polycyclic pyridone derivative and crystal thereof” (priority 2016, dated 2023).

The structures appear in SMILES notation.

The format of series [1] is in vitro ADME. As to conditions: 2 μmol/L of the compound, human liver microsomes 0.5 mg protein/mL, 30 minutes, 37° C., NADPH. Here is the method:
Test Example 5: Metabolism Stability Test
Compound (V) was reacted with commercially available pooled human hepatic microsomes for a certain time. The remaining rate of the compound was calculated by comparing the reacted sample and the unreacted sample to assess the degree of metabolism of Compound (V) in liver.
The compound was reacted in 0.2 mL of buffer (50 mmol/L Tris-HCl pH 7.4, 150 mmol/L potassium chloride, 10 mmol/L magnesium chloride) containing 0.5 mg protein/mL of human liver microsomes at 37° C. for 0 minute or 30 minutes in the presence of 1 mmol/L NADPH (oxidative reaction). After the reaction, 50 μL of the reaction solution was added to 100 μL of methanol/acetonitrile=1/1 (v/v), mixed and centrifuged at 3000 rpm for 15 minutes. The amount of Compound (V) in the supernatant was measured by LC/MS/MS, and the remaining rate of the compound after the reaction was calculated, with the amount of the compound at 0 minute of reaction time being 100%. The hydrolysis reaction was carried out in the absence of NADPH, and the glucuronidation reaction was carried out in the presence of 5 mmol/L UDP-glucuronic acid instead of NADPH, and the subsequent procedure was carried out in the same manner as described.
A general note: Liver microsomes are vesicles of endoplasmic reticulum, rich in cytochrome P450 enzymes.

Series [2] has as its system red blood cell suspension prepared from ovine defibrinated blood of sheep. The experiment in a line: Photohemolysis test. The series is classed as cell-based. The following applies: UVA and UVB irradiation 10 J/cm^2, 290-400 nm. How it is done: Test Example 12: Photohemolysis Test
Compound (V) was dissolved at a predetermined concentration and mixed on a microplate with a […] (2.5 v/v %) prepared from ovine defibrinated blood of sheep. Light irradiation in the UVA and UVB wavelength regions (10 J/cm^2, 290-400 nm) was performed using ultraviolet fluorescent lamp (GL20SE lamp, Sankyo Denki and FL20S-BLB lamp, Panasonic). The mixed solution after the irradiation was collected and centrifuged. After centrifugation, the supernatant was collected and transferred to a microplate, and the absorbance (at 540 or 630 nm) of the supernatant was measured. The absorbance at 540 and 630 nm were used as an index of biological membrane damage (% light hemolysis) and lipid membrane peroxidation (methemoglobin production), respectively. (−): less than 10% for photohemolysis rate and less than 0.05 for the change in absorbance at 630 nm; (+): 10% or more for photohemolysis rate and 0.05 or more for the change in absorbance at 630 nm.

For series [3], the target named is T1, CYP3A4 (Homo sapiens, UniProt P08684). The series can be described thus: biochemical. The format is in vitro ADME. Details: Using commercially available pooled human hepatic microsome; from tissue. The following applies: pooled human hepatic microsome 0.2 mg protein/mL, 15 minutes, 37° C. From the text: (§1) Test Example 3: CYP Inhibition Test
(§2) Using commercially available pooled human hepatic microsome and employing, as a reference, typical substrate metabolism reactions of human main five CYP enzyme forms (CYP1A2, 2C9, 2C19, 2D6, 3A4), i.e., 7-ethoxyresorufin O-deethylation (CYP1A2), tolbutamide methyl-hydroxylation (CYP2C9), mephenytoin 4′-hydroxylation (CYP2C19), dextromethorphan O-demethylation (CYP2D6), and terfenedine hydroxylation (CYP3A4), the degree of inhibition by Compound (V) was assessed for each metabolite production.
The reaction conditions were as follows: […]
For each of the five substances, a reaction solution was prepared on a 96-well plate by adding the substrate, human hepatic microsome and Compound (V) to 50 mmol/L Hepes buffer in the proportion as described above. […] After centrifugation at 3000 rpm for minutes, resorufin (CYP1A2 metabolite) in the supernatant was measured by fluorescent multi-label counter, and hydroxytolbutamide (CYP2C9 metabolite), 4′-hydroxymephenytoin (CYP2C19 metabolite), dextrorphan (CYP2D6 metabolite) and terfenadine alcohol (CYP3A4 metabolite) were measured by LC/MS/MS. […]

The target of another series is T2, CYP2C9 (Homo sapiens, UniProt P11712).
T2 construct: Using commercially available pooled human hepatic microsome; from tissue
The series can be described thus: biochemical. The series is classed as in vitro ADME. As to conditions: pooled human hepatic microsome 0.2 mg protein/mL, 15 minutes, 37° C.
Description: as §1, §2
(§3) The reaction conditions were as follows:
(§4) Substrate: 0.5 μmol/L ethoxyresorufin (CYP1A2), 100 μmol/L tolbutamide (CYP2C9), 50 μmol/L S-mephenytoin (CYP2C19), 5 μmol/L dextromethorphan (CYP2D6), 1 μmol/L terfenedine (CYP3A4); Reaction time: 15 minutes; Reaction temperature: 37° C.; Enzyme: pooled human hepatic microsome 0.2 mg protein/mL; Concentration of Compound (V): 1, 5, 10, 20 μmol/L (four points).
(§5) For each of the five substances, a reaction solution was prepared on a 96-well plate by adding the substrate, human hepatic microsome and Compound (V) to 50 mmol/L Hepes buffer in the proportion as described above. NADPH, which is a cofactor, was added to initiate the metabolism reaction. After incubating at 37° C. for 15 minutes, a methanol/acetonitrile solution (1/1 (v/v)) was added to quench the reaction. After centrifugation at 3000 rpm for minutes, resorufin (CYP1A2 metabolite) in the supernatant was measured by fluorescent multi-label counter, and hydroxytolbutamide (CYP2C9 metabolite), 4′-hydroxymephenytoin (CYP2C19 metabolite), dextrorphan (CYP2D6 metabolite) and terfenadine alcohol (CYP3A4 metabolite) were measured by LC/MS/MS.
(§6) As a control, DMSO (the solvent for dissolving Compound (V)) was added solely to the reaction system. The remaining activity (%) of Compound (V), relative to the control (100%), was calculated at each concentration of the compound, and the IC50 was calculated by reverse presumption by a logistic model using the concentration and the inhibition rate.

Another series concerns the target T3, CYP1A2 (Homo sapiens, UniProt P05177).
T3 construct: Using commercially available pooled human hepatic microsome; from tissue
T3 sequence (P05177 1-516): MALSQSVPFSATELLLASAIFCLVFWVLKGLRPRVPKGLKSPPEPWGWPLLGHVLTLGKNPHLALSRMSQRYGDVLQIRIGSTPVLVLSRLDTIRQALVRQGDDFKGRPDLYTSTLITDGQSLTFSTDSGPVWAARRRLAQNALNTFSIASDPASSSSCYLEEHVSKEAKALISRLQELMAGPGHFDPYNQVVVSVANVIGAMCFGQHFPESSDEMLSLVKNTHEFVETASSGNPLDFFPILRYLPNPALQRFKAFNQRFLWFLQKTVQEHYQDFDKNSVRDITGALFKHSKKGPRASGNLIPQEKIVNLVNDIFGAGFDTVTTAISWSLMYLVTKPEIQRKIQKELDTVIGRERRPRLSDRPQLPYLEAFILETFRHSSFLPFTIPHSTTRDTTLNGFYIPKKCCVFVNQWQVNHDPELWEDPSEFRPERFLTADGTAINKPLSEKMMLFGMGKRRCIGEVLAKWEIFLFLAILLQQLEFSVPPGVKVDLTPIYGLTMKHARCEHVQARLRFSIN
The experiment in a line: biochemical. As to conditions: pooled human hepatic microsome 0.2 mg protein/mL, 15 minutes, 37° C. The series is classed as in vitro ADME.
Description: as §1, §2, §3, §4, §5, §6

Another series concerns the target T4, CYP2C19 (Homo sapiens, UniProt P33261).
T4 construct: Using commercially available pooled human hepatic microsome; from tissue
The series can be described thus: biochemical. The format is in vitro ADME. As to conditions: pooled human hepatic microsome 0.2 mg protein/mL, 15 minutes, 37° C.
Description: as §1, §2, §3, §4, §5, §6

A further series has as its target T5, CYP2D6 (Homo sapiens, UniProt P10635).
T5 construct: Using commercially available pooled human hepatic microsome; from tissue
The series can be described thus: biochemical. As to conditions: pooled human hepatic microsome 0.2 mg protein/mL, 15 minutes, 37° C. The format is in vitro ADME.
Description: as §1, §2, §3, §4, §5, §6

The target of series [4] is T1, CYP3A4. The format is in vitro ADME. Details: host or cells: Escherichia coli. The following applies: pre-reaction time 0 or 30 minutes, 7-BFC substrate. Here is the method: Test Example 6: CYP3A4 Fluorescent MBI Test
The CYP3A4 fluorescent MBI test investigates enhancement of CYP3A4 inhibition by Compound (V) in metabolism reaction. 7-benzyloxytrifluoromethylcoumarin (7-BFC) was debenzylated by CYP3A4 enzyme (enzyme expressed in Escherichia coli) and a metabolite, 7-hydroxytrifluoromethylcoumarin (7-HFC) which emits fluorescent light was produced. The test was performed using 7-HFC production reaction as an index.
The reaction conditions were as follows: Substrate, 5.6 μmol/L 7-BFC; pre-reaction time, 0 or 30 minutes; reaction time, 15 minutes; reaction temperature, 25° C. […]
A pre-reaction solution containing the enzyme and Compound (V) in K-Pi buffer (pH 7.4) as described above was added to a 96-well plate. […] For each of the plates on which the reaction was performed, the fluorescent value of the metabolite 7-HFC was measured by fluorescent plate reader (Ex=420 nm, Em=535 nm).
As a control for remaining activity, DMSO (i.e., the solvent for dissolving Compound (V)) was added solely to the reaction system, and the remaining activity (%) was calculated for each concentration of Compound (V) in the solution. The IC50 value was calculated by reverse-presumption by logistic model using the concentration and the inhibition rate. […]

Series [5] can be described thus: Plasma concentration after oral administration of Compound (VI) to rats. The format is in vivo. The following applies: after oral administration of Compound (VI) to rats under non-fasting condition. From the text:
FIG. 7 is a time-course of the concentration in plasma of the compound of formula (V) after oral administration of the compound of formula (VI), which is a prodrug of the compound of formula (V), to rats under non-fasting condition.
FIG. 8 is a time-course of the concentration in plasma of the compound of formula (VI) after oral administration of the compound of formula (VI), which is a prodrug of the compound of formula (V), to rats under non-fasting condition.
FIG. 7 and FIG. 8 show the time-course of the concentration in plasma of Compound (V) and its prodrug Compound (VI) after oral administration of Compound (VI) to rats under non-fasting condition.

T1 sequence (P08684 whole entry): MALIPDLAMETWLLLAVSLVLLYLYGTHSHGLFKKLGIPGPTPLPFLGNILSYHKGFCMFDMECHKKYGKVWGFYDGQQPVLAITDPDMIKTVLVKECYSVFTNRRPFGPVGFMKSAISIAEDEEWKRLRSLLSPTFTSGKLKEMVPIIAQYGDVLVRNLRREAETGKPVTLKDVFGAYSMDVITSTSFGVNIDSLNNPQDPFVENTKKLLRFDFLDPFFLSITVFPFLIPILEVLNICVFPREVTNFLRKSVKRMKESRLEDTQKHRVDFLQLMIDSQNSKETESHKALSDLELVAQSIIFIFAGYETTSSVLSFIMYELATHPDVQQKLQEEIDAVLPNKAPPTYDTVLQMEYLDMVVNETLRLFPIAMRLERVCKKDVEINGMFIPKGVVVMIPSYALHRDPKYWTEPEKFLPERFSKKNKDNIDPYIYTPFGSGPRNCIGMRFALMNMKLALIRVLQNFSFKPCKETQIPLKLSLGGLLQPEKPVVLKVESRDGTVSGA
T4 sequence (P33261 whole entry): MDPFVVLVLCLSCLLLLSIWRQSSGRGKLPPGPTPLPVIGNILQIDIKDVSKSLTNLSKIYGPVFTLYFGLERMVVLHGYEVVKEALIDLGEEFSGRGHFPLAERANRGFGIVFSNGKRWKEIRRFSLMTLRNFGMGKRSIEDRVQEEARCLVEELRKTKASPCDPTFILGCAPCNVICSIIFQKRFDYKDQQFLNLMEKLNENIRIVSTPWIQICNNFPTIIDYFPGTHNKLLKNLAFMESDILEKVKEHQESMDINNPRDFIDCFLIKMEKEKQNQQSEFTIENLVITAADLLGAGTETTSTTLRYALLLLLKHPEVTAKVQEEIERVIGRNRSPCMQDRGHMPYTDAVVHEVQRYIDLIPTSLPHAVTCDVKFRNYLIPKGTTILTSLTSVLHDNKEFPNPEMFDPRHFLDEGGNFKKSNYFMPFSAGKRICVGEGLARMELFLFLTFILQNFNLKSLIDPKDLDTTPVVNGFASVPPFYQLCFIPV
T2 sequence (P11712 whole entry): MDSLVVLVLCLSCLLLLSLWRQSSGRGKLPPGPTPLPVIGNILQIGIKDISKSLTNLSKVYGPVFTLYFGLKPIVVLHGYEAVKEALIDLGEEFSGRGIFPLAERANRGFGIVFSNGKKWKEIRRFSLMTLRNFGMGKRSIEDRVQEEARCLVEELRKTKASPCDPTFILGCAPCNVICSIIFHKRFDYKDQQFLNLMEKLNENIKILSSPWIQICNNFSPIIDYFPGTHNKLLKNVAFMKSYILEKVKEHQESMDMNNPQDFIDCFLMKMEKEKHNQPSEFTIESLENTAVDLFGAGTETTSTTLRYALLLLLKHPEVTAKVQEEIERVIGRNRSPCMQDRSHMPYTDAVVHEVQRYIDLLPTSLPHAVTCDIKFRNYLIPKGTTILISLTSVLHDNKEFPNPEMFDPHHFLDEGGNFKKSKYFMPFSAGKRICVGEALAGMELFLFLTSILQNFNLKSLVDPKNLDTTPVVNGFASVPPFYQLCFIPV
T5 sequence (P10635 whole entry): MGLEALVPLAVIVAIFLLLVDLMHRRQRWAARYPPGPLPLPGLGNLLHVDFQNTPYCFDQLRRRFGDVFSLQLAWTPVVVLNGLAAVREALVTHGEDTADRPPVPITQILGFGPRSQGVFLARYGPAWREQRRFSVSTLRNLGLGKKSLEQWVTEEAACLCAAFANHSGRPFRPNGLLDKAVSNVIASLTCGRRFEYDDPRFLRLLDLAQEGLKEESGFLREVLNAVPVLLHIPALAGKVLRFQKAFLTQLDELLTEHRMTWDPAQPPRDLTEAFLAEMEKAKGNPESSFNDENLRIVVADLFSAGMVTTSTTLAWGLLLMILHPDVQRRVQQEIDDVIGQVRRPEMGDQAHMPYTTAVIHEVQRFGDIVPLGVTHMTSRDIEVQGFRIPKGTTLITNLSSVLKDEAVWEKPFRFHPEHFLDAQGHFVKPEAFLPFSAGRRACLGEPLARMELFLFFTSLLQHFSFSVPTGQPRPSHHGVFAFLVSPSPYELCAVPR

As usually defined, the IC50 is the concentration at which inhibition is half-maximal. A high value points to weaker potency. Regarding `O=C1c2c(O)c(=O)ccn2N([C@@H]2c3ccccc3SCc3c2ccc(F)c3F)[C@@H]2COCCN12` [Compound (V)], in series [1], the “remaining rate in oxidative metabolism” value was 90.1%. For the same compound, in series [2], the photohemolysis entry was “(−) ((−): less than 10% for photohemolysis rate and less than 0.05 for the change in absorbance at 630 nm)”. In addition, the IC50 at CYP3A4 [3], against CYP2C9, on CYP1A2, at CYP2C19 and against CYP2D6 was > 20 µM throughout. In addition, the “CYP3A4 fluorescent MBI (difference in IC50 values with/without pre-incubation)” value at CYP3A4 [4] is “(−) (a difference of 3 μM or less was defined as (−))”.

With `COC(=O)OCOc1c2n(ccc1=O)N([C@@H]1c3ccccc3SCc3c1ccc(F)c3F)[C@@H]1COCCN1C2=O` [Compound (VI)], the “concentration in plasma sample” value in [5] was “below the limit of quantification”.
